Laboratory results from PubChem BioAssay AID2060623 (Molecular Pharmacology Branch, DTP, NCI, 2025).
pIC50: −log10 of the molar value.

System: 227483-062-R1-J1-PDC complex spheroids with HUVEC/MSC, viability
Assay: Anticancer human tumor 227483-062-R1-J1-PDC patient-derived pancreatic carcinoma cell line growth inhibition [CLK]
Conditions: for pIC50: curve of first compound; for viability, T/C: stronger effect = lower value
How it was run: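 Multi-cell-type spheroids combined patient-derived tumor cells with HUVEC endothelial cells and human mesenchymal stem cells. Paired agents were dosed in half-log steps down from about clinical Cmax, or from 10 microM where Cmax was unknown.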

[1] = second compound 0.0316 µM, first compound 0.0316 µM
[2] = second compound 0.0316 µM, first compound 0.1 µM
[3] = second compound 0.0316 µM, first compound 0.316 µM
[4] = second compound 0.0316 µM, first compound 1 µM
[5] = second compound 0.0316 µM, first compound 3.16 µM
[6] = second compound 0.0316 µM, first compound 10 µM
[7] = second compound 0.1 µM, first compound 0.0316 µM
[8] = second compound 0.1 µM, first compound 0.1 µM
[9] = second compound 0.1 µM, first compound 0.316 µM
[10] = second compound 0.1 µM, first compound 1 µM
[11] = second compound 0.1 µM, first compound 3.16 µM
[12] = second compound 0.1 µM, first compound 10 µM
[13] = second compound 0.316 µM, first compound 0.0316 µM
[14] = second compound 0.316 µM, first compound 0.1 µM
[15] = second compound 0.316 µM, first compound 0.316 µM
[16] = second compound 0.316 µM, first compound 1 µM
[17] = second compound 0.316 µM, first compound 3.16 µM
[18] = second compound 0.316 µM, first compound 10 µM
[19] = second compound 1 µM, first compound 0.0316 µM
[20] = second compound 1 µM, first compound 0.1 µM
[21] = second compound 1 µM, first compound 0.316 µM
[22] = second compound 1 µM, first compound 1 µM
[23] = second compound 1 µM, first compound 3.16 µM
[24] = second compound 1 µM, first compound 10 µM
[25] = second compound 3.16 µM, first compound 0.0316 µM
[26] = second compound 3.16 µM, first compound 0.1 µM
[27] = second compound 3.16 µM, first compound 0.316 µM
[28] = second compound 3.16 µM, first compound 1 µM
[29] = second compound 3.16 µM, first compound 3.16 µM
[30] = second compound 3.16 µM, first compound 10 µM
[31] = second compound 10 µM, first compound 0.0316 µM
[32] = second compound 10 µM, first compound 0.1 µM
[33] = second compound 10 µM, first compound 0.316 µM
[34] = second compound 10 µM, first compound 1 µM
[35] = second compound 10 µM, first compound 3.16 µM
[36] = second compound 10 µM, first compound 10 µM
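Also: spheroids exposed to compounds for seven days before readout.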
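For viability, T/C in this document: percent of DMSO vehicle control luminescence as 100% viability.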

## CC(=O)O[C@H]1C(=O)[C@@]2(C)[C@H]([C@H](OC(=O)c3ccccc3)[C@]3(O)C[C@H](OC(=O)[C@H](O)[C@@H](NC(=O)c4ccccc4)c4ccccc4)C(C)=C1C3(C)C)[C@]1(OC(C)=O)CO[C@@H]1C[C@@H]2O + CNC(=O)c1ccc(Nc2nc(OC3CCCC3)c3c(-c4ccc5nc(C)oc5c4)c[nH]c3n2)c(OC)c1
Second compound 0.0316 µM
  pIC50: > 7.50
Second compound 0.1 µM
  pIC50: < 5.00
Second compound 0.316 µM
  pIC50: < 5.00
Second compound 1 µM
  pIC50: < 5.00
Second compound 3.16 µM
  pIC50: > 7.50
Second compound 10 µM
  pIC50: > 7.50
[1]
  viability, T/C: 29.7%
[2]
  viability, T/C: 27.1%
[3]
  viability, T/C: 35.6%
[4]
  viability, T/C: 43.4%
[5]
  viability, T/C: 48.3%
[6]
  viability, T/C: 75.9%
[7]
  viability, T/C: 53.8%
[8]
  viability, T/C: 62.1%
[9]
  viability, T/C: 71.1%
[10]
  viability, T/C: 85.1%
[11]
  viability, T/C: 77.1%
[12]
  viability, T/C: 101%
[13]
  viability, T/C: 70.4%
[14]
  viability, T/C: 95.6%
[15]
  viability, T/C: 98.9%
[16]
  viability, T/C: 101%
[17]
  viability, T/C: 99.3%
[18]
  viability, T/C: 95.8%
[19]
  viability, T/C: 60.8%
[20]
  viability, T/C: 69.2%
[21]
  viability, T/C: 72.7%
[22]
  viability, T/C: 101%
[23]
  viability, T/C: 96.7%
[24]
  viability, T/C: 89.4%
[25]
  viability, T/C: 46.7%
[26]
  viability, T/C: 58.9%
[27]
  viability, T/C: 62.9%
[28]
  viability, T/C: 61.5%
[29]
  viability, T/C: 70.1%
[30]
  viability, T/C: 54.6%
[31]
  viability, T/C: 37.9%
[32]
  viability, T/C: 49.9%
[33]
  viability, T/C: 50.3%
[34]
  viability, T/C: 61.4%
[35]
  viability, T/C: 49.5%
[36]
  viability, T/C: 55.5%

## COc1ccc([C@@H](O)c2cc(-c3ncnc4cc(N5CCOCC5)ccc34)c(F)cc2Cl)nn1 + CNC(=O)c1ccc(Nc2nc(OC3CCCC3)c3c(-c4ccc5nc(C)oc5c4)c[nH]c3n2)c(OC)c1
Second compound 0.0316 µM
  pIC50: < 5.00
Second compound 0.1 µM
  pIC50: < 5.00
Second compound 0.316 µM
  pIC50: < 5.00
Second compound 1 µM
  pIC50: 6.12
Second compound 3.16 µM
  pIC50: > 7.50
Second compound 10 µM
  pIC50: > 7.50
[1]
  viability, T/C: 94.6%
[2]
  viability, T/C: 85.9%
[3]
  viability, T/C: 108%
[4]
  viability, T/C: 94.5%
[5]
  viability, T/C: 73.1%
[6]
  viability, T/C: 59.8%
[7]
  viability, T/C: 98.6%
[8]
  viability, T/C: 86.8%
[9]
  viability, T/C: 76.7%
[10]
  viability, T/C: 75.5%
[11]
  viability, T/C: 58.5%
[12]
  viability, T/C: 53.5%
[13]
  viability, T/C: 86.2%
[14]
  viability, T/C: 83.1%
[15]
  viability, T/C: 72.1%
[16]
  viability, T/C: 56.5%
[17]
  viability, T/C: 63.5%
[18]
  viability, T/C: 53.7%
[19]
  viability, T/C: 68.1%
[20]
  viability, T/C: 64.3%
[21]
  viability, T/C: 62.8%
[22]
  viability, T/C: 42.5%
[23]
  viability, T/C: 48%
[24]
  viability, T/C: 46.7%
[25]
  viability, T/C: 42%
[26]
  viability, T/C: 41.5%
[27]
  viability, T/C: 42.1%
[28]
  viability, T/C: 45.7%
[29]
  viability, T/C: 48.3%
[30]
  viability, T/C: 26.2%
[31]
  viability, T/C: 36.1%
[32]
  viability, T/C: 38.2%
[33]
  viability, T/C: 31.9%
[34]
  viability, T/C: 39%
[35]
  viability, T/C: 38.6%
[36]
  viability, T/C: 27.9%

## COc1cccc2c1C(=O)c1c(O)c3c(c(O)c1C2=O)CC(O)(C(=O)CO)CC3OC1CC(N)C(O)C(C)O1 (stereo unspecified) + CNC(=O)c1ccc(Nc2nc(OC3CCCC3)c3c(-c4ccc5nc(C)oc5c4)c[nH]c3n2)c(OC)c1
Second compound 0.0316 µM
  pIC50: 6.56
Second compound 0.1 µM
  pIC50: 6.64
Second compound 0.316 µM
  pIC50: 6.75
Second compound 1 µM
  pIC50: 6.94
Second compound 3.16 µM
  pIC50: > 7.50
Second compound 10 µM
  pIC50: > 7.50
[1]
  viability, T/C: 84.4%
[2]
  viability, T/C: 91.2%
[3]
  viability, T/C: 43.6%
[4]
  viability, T/C: 19.9%
[5]
  viability, T/C: 1.83%
[6]
  viability, T/C: 10.3%
[7]
  viability, T/C: 81.2%
[8]
  viability, T/C: 79.9%
[9]
  viability, T/C: 38.1%
[10]
  viability, T/C: 15%
[11]
  viability, T/C: 2.41%
[12]
  viability, T/C: 10.7%
[13]
  viability, T/C: 81.7%
[14]
  viability, T/C: 66.2%
[15]
  viability, T/C: 33.8%
[16]
  viability, T/C: 9.76%
[17]
  viability, T/C: 2.28%
[18]
  viability, T/C: 9.14%
[19]
  viability, T/C: 66.9%
[20]
  viability, T/C: 53.5%
[21]
  viability, T/C: 20.1%
[22]
  viability, T/C: 4.28%
[23]
  viability, T/C: 2.52%
[24]
  viability, T/C: 5.99%
[25]
  viability, T/C: 45.1%
[26]
  viability, T/C: 35.9%
[27]
  viability, T/C: 11.5%
[28]
  viability, T/C: 2.71%
[29]
  viability, T/C: 3.57%
[30]
  viability, T/C: 5.5%
[31]
  viability, T/C: 41.7%
[32]
  viability, T/C: 28.1%
[33]
  viability, T/C: 11.3%
[34]
  viability, T/C: 2.5%
[35]
  viability, T/C: 3.15%
[36]
  viability, T/C: 6.7%
